The molecules below were run against T1, SAMHD1 (Homo sapiens, UniProt Q9Y3Z3) (assay: coupled enzyme assay (Ppx1/MDCC-PBP), competitive inhibition of TTP hydrolysis).
T1 construct: wt-SAMHD1(1–626)
Assay type: biochemical

T1 sequence (Q9Y3Z3 whole entry): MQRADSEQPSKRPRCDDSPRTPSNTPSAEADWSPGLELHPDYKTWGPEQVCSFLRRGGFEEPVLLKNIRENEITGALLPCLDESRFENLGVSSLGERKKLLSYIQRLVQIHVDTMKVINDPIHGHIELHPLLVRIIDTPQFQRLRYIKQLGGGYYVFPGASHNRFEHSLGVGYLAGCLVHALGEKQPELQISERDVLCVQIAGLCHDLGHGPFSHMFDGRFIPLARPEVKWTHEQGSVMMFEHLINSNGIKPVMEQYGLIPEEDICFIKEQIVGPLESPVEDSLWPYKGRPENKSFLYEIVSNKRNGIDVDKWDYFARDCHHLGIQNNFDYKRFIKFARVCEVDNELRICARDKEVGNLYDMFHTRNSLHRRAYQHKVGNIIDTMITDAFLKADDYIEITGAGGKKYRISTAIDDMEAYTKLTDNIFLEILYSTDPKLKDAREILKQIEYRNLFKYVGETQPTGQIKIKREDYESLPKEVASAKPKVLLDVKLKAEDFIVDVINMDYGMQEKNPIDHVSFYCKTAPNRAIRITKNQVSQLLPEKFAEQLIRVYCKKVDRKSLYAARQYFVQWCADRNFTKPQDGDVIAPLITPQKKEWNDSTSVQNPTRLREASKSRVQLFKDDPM

Compound	Ki
Nc1nc2c(ncn2[C@H]2C[C@H](O)[C@@H](CO[P@](O)(=S)OP(=O)(O)OP(=O)(O)O)O2)c(=O)[nH]1 [Sp-dGTPαS]	0.82 ± 0.05 µM
Nc1ncnc2c1ncn2[C@H]1C[C@H](O)[C@@H](CO[P@](O)(=S)OP(=O)(O)OP(=O)(O)O)O1 [Sp-dATPαS]	117 ± 7 µM
Cc1cn([C@H]2C[C@H](O)[C@@H](CO[P@](O)(=S)OP(=O)(O)OP(=O)(O)O)O2)c(=O)[nH]c1=O [Sp-TTPαS]	46 ± 2 µM
Nc1ccn([C@H]2C[C@H](O)[C@@H](CO[P@](O)(=S)OP(=O)(O)OP(=O)(O)O)O2)c(=O)n1 [Sp-dCTPαS]	6.3 ± 0.4 µM
